Laboratory results from US7572923B2, “Indirubin derivatives having anticancer property against human cancer cell line” (Anygen Co., Ltd., priority 2004, dated 2009).

Columns and labels:
[1] = tested on: human leukemia cell line (HL-60); test: Differentiation with low concentration 1,25-(OH)2D3 or ATRA, NBT reduction method; assay type: cell-based; settings: for % of Differentiation, 1,25-(OH)2D3: 1 μM compound with 5 nM of 1,25-(OH)2D3; for % of Differentiation, all-trans RA: 1 μM compound with 50 nM of ATRA
Method: (§1) For measuring the differentiation inducing effect to acute bone merrow leukemia cell line (HL-60) by indirubin AGM compound, NBT (nitroblue tetrazolium) reduction reaction method is employed. The leukemia cell line is diluted into 2×10^5 cfu/ml. After treating 20 μM and 1 μM concentrations of test compounds, test plate is incubated for 3 days at 37° C. in 5% CO2 incubator. Incubated cells are washed with phosphate buffered saline (PBS). Then, they are further incubated in PBS solution containing 0.1% NBT and 200 ng/ml of PMA (phorbol 12-myristate 13-acetate) for 30 minutes at 37° C. Incubated cells are centrifuged and collected cells are washed with PBS solution. Using cell number counter, differentiated cells forming nitroblue formazan among total cells are counted.
Next, we test if AGM compound of present invention can synergically induce the differentiation of acute bone merrow leukemia cell line when it is treated with low concentration of 1,25-dihydroxyvitamin D3[1,25-(OH)2D3] or all-trans retinoic acid (ATRA) known as differentiation inducing agent. […] […] As a positive control, conventional differentiation inducing agent is used.

[2] = tested on: leukemia cell line (HL-60); test: Differentiation inducing effect, NBT reduction method; assay type: cell-based, human; settings: 3 days
Method: as §1, with “After treating 20 μM and 1 μM concentrations of test compounds, test plate is incubated for 3 days at 37° C. in 5% CO2 incubator.” left out

[3] = tested on: human stomach cancer cell line (SNU-638); test: Inhibition of cancer cell line proliferation, SNU-638; assay type: cell-based; settings: 96 h, 3˜4 days incubation, absorbance at 515 nm
Method: (§2) For measuring the proliferation inhibition by indirubin compound, the method disclosed in K. Likhitwitayawuid et al. Journal. Nat. Prod. […] Followings are simple description of this method. The cancer cell line is diluted into 5×10^4 cfu/ml. Then, various concentrations of test compounds are added to 96 well microtiter plate containing diluted cell line. After incubating test plate for 3˜4 days at 37° C., the test plate is dried and Tris-base is added. Then, using ELISA plate detector, the absorbance at 515 nm is measured. IC50 is measured by non-linear regression method.

[4] = tested on: human lung cancer cell line (A549); test: Inhibition of cancer cell line proliferation, A549; assay type: cell-based; settings: 96 h, 3˜4 days incubation, absorbance at 515 nm
Method: as §2

[5] = tested on: human colon cancer cell line (Col2); test: Inhibition of cancer cell line proliferation, Col2; assay type: cell-based; settings: 96 h, 3˜4 days incubation, absorbance at 515 nm
Method: as §2

[6] = tested on: human abdominal cavity cancer cell line (HT 1080); test: Inhibition of cancer cell line proliferation, HT 1080; assay type: cell-based; settings: HT-1080, 96 h, HT108, 3˜4 days incubation, absorbance at 515 nm
Method: as §2

[7] = tested on: human leukemia cell line (HL-60); test: Inhibition of cancer cell line proliferation, HL-60; assay type: cell-based; settings: HL-60, 96 h, HL60, 3˜4 days incubation, absorbance at 515 nm
Method: as §2

IC50 [3] | IC50 [4] | IC50 [5] | IC50 [6] | IC50 [7] | Structure (SMILES) | % of Differentiation, 1,25-(OH)2D3 [1] | % of Differentiation, all-trans RA [1] | % of Differentiation ([2]; 1 μM compound) | % of Differentiation ([2]; 20 μM compound)
 |  |  |  |  | O=C1Nc2ccccc2/C1=C1/Nc2ccccc2C1=O [Indirubin] | 26.39 ± 0.98% | 44.87 ± 2.54% | 15.28 ± 1.12% | 1.18 ± 0.18%
> 100 µM | 62 µM | > 100 µM | 4.8 µM |  | O=C1Nc2ccccc2C1=C1Nc2ccccc2C1=NO [AGM002, 1H,1′H-[2,3′] biindolylidene-3,2′-dione 3-oxime] | 24.52 ± 2.67% | 37.78 ± 1.06% | 11.12 ± 0.31% | 6.78 ± 0.40%
90.6 µM | > 100 µM | > 100 µM | > 100 µM | > 100 µM | Cc1cc(C)c2c(c1)C(=C1Nc3ccccc3C1=NO)C(=O)N2 [AGM016, 5′,7′-dimethyl-1H,1′H-[2,3′] biindolylidene-3,2′-dione 3-oxime] | 27.24 ± 1.32% | 33.99 ± 0.47% | 3.07 ± 1.69% | 10.35 ± 0.62%
> 100 µM | > 100 µM | > 100 µM | > 100 µM | > 100 µM | CC(=O)N1C(=C2C(=O)Nc3ccccc32)C(=O)c2ccccc21 [AGM006, 1-acetyl-1H,1′H-[2,3′] biindolylidene-3,2′-dione] | 19.60 ± 0.56% | 42.81 ± 1.05% | 9.99 ± 1.47% | 10.49 ± 0.25%
> 100 µM | 31 µM | > 100 µM | 42.2 µM |  | O=C1Nc2ccccc2C1=C1Nc2ccccc2C1=O [AGM001, 1H,1′H-[2,3′] biindolylidene-3,2′-dione] | 28.36 ± 0.15% | 39.61 ± 1.25% | 7.76 ± 3.42% | 10.00 ± 0.27%
> 100 µM | > 100 µM | > 100 µM | > 100 µM | > 100 µM | O=C1Nc2ccc([N+](=O)[O-])cc2C1=C1Nc2ccccc2C1=O [AGM009, 5′-nitro-1H,1′H-[2,3′] biindolylidene-3,2′-dione] | 48.51 ± 3.49% | 59.32 ± 1.54% | 19.94 ± 2.02% | 29.26 ± 1.59%
 |  |  |  |  | O=C1Nc2ccc(S(=O)(=O)[O-])cc2C1=C1Nc2ccccc2C1=NO.[Na+] [AGM020, 3-hydroxyimino-2′-oxo-1,3,1′,2′-tetrahydro-[2,3′] biindolylidene-5′-sodium sulfonate] | 23.34 ± 0.65% | 34.50 ± 2.91% | 11.34 ± 2.32% | 23.86 ± 1.31%
 |  |  |  |  | O=C1Nc2ccc(OC(F)(F)F)cc2C1=C1Nc2ccccc2C1=O [AGM003] | 22.04 ± 0.38% | 41.01 ± 1.26% | 6.27 ± 1.76% | 10.36 ± 0.29%
 |  |  |  |  | O=C1Nc2ccc(OC(F)(F)F)cc2C1=C1Nc2ccccc2C1=NO [AGM004] | 26.36 ± 3.05% | 28.68 ± 0.23% | 22.81 ± 2.38% | 
 |  |  |  |  | O=C1Nc2ccc([N+](=O)[O-])cc2C1=C1Nc2ccc(Br)cc2C1=O [AGM022] | 48.28 ± 0.36% | 51.20 ± 3.70% | 18.35 ± 0.02% | 22.89 ± 0.51%
 |  |  |  |  | O=C1Nc2ccc(S(=O)(=O)[O-])cc2C1=C1Nc2ccccc2C1=O.[Na+] [AGM019, 3,2′-dioxo-1,3,1′,2′-tetrahydro-[2,3′] biindolylidene-5′-sodium sulfonate] | 27.66 ± 1.28% | 51.49 ± 0.13% | 9.36 ± 0.13% | 12.44 ± 1.66%
